Reference: ChEMBL document CHEMBL1126538, “A novel class of 1,3-oxathiolane nucleoside analogues having potent anti-HIV activity” (1993)
≈ marks a conversion by molar mass, not a printed value.

tested on: MT4; assay: Compound was tested for its inhibitory concentration against HIV-1 in MT-4 cell line; type: functional; settings: Homo sapiens, read-out: ID50 (the source's name)

| SMILES | IC50 [µg/mL] |
| --- | --- |
| Nc1ccn(C2COC(CO)S2)c(=O)n1 (configuration not stated) | > 10 |

tested on: MT4; assay: Cytotoxic activity against MT-4 cell line; type: functional; settings: Homo sapiens, read-out: CD50 (the source's name)

| SMILES | CC50 [µg/mL] |
| --- | --- |
| Nc1ncnc2c1ncn2[C@@H]1COC(CO)S1 (some centres not stated) | > 100 |
| Cc1cn([C@@H]2COC(CO)S2)c(=O)[nH]c1=O (some centres not stated) | > 100 |
| O=c1ccn([C@@H]2COC(CO)S2)c(=O)[nH]1 (some centres not stated) | > 100 |
| Nc1ccn([C@@H]2COC(CO)S2)c(=O)n1 (some centres not stated) | > 100 |
| Nc1nc(=O)n([C@@H]2COC(CO)S2)cc1F (some centres not stated) | > 100 |
| Cc1cn(C2COC(CO)S2)c(=O)[nH]c1=O (configuration not stated) | > 100 |
| Nc1nc(=O)n(C2COC(CO)S2)cc1F (configuration not stated) | > 100 |
| Nc1ncnc2c1ncn2[C@@H]1CO[C@H](CO)S1 | 100 (≈ 395 µM) |
| Nc1ncnc2c1ncn2[C@H]1CO[C@@H](CO)S1 | 100 (≈ 395 µM) |
| O=c1ccn(C2COC(CO)S2)c(=O)[nH]1 (configuration not stated) | > 100 |
| Nc1nc(O)c2ncn(C3COC(CO)S3)c2n1 (configuration not stated) | > 100 |
| Nc1ncnc2c1ncn2C1COC(CO)S1 (configuration not stated) | 100 (≈ 395 µM) |
| Nc1ccn(C2COC(CO)S2)c(=O)n1 (configuration not stated) | 10 (≈ 43.6 µM) |
| O=c1[nH]cnc2c1ncn2[C@H]1CC[C@@H](CO)O1 [DIDANOSINE] | 100 (≈ 423 µM) |
| Nc1ccn([C@@H]2CS[C@H](CO)O2)c(=O)n1 [LAMIVUDINE] | > 100 |
| Cc1cn([C@H]2C[C@H](N=[N+]=[N-])[C@@H](CO)O2)c(=O)[nH]c1=O [ZIDOVUDINE] | > 1 |

tested on: MT4; assay: Inhibitory concentration against HIV-1 in MT-4 cell line.; type: functional; settings: Homo sapiens, read-out: ID50 (the source's name)

| SMILES | IC50 [µg/mL] |
| --- | --- |
| Nc1ncnc2c1ncn2[C@@H]1COC(CO)S1 (some centres not stated) | > 100 |
| Cc1cn([C@@H]2COC(CO)S2)c(=O)[nH]c1=O (some centres not stated) | > 100 |
| O=c1ccn([C@@H]2COC(CO)S2)c(=O)[nH]1 (some centres not stated) | > 100 |
| Nc1ccn([C@@H]2COC(CO)S2)c(=O)n1 (some centres not stated) | > 100 |
| Nc1nc(=O)n([C@@H]2COC(CO)S2)cc1F (some centres not stated) | > 100 |
| Cc1cn(C2COC(CO)S2)c(=O)[nH]c1=O (configuration not stated) | > 100 |
| Nc1nc(=O)n(C2COC(CO)S2)cc1F (configuration not stated) | 2.5 (≈ 10.1 µM) |
| Nc1ncnc2c1ncn2[C@@H]1CO[C@H](CO)S1 | 50 (≈ 197 µM) |
| Nc1ncnc2c1ncn2[C@H]1CO[C@@H](CO)S1 | 1.1 (≈ 4.34 µM) |
| O=c1ccn(C2COC(CO)S2)c(=O)[nH]1 (configuration not stated) | > 100 |
| Nc1nc(O)c2ncn(C3COC(CO)S3)c2n1 (configuration not stated) | > 100 |
| Nc1ncnc2c1ncn2C1COC(CO)S1 (configuration not stated) | 2.1 (≈ 8.29 µM) |
| O=c1[nH]cnc2c1ncn2[C@H]1CC[C@@H](CO)O1 [DIDANOSINE] | 2.3 (≈ 9.74 µM) |
| Nc1ccn([C@@H]2CS[C@H](CO)O2)c(=O)n1 [LAMIVUDINE] | 0.13 (≈ 0.567 µM) |
| Cc1cn([C@H]2C[C@H](N=[N+]=[N-])[C@@H](CO)O2)c(=O)[nH]c1=O [ZIDOVUDINE] | 0.06 (≈ 0.225 µM) |
